Data published in PMC10590756, “Glutarate regulates T cell metabolism and anti-tumour immunity” (Nature Metabolism, 2023).

Assays:
[1] = system: murine CD8^+ T cells; test: Cell growth and viability of murine CD8^+ T cells; format: cell-based; details: 7 days
Procedure: After 7 days of culture, we assessed the abundance of CD62L^hiCD44^hi (TCM-like) T cells by flow cytometry (Fig. 1a). We additionally determined the effect of each compound on cell growth and viability (Fig. 1b and Extended Data Fig. 1a).
B16F10 cells were originally purchased from ATCC (catalogue no. CRL-6475) and genetically modified to express OVA, enhanced green fluorescent protein (GFP) and neomycin phosphotransferase. The resulting OVA expression B16F10-OVA cells were cultured in DMEM (catalogue no. 11995065, Thermo Fisher Scientific) containing 0.75 mg ml^−1 G418 sulphate (catalogue no. 10131027, Thermo Fisher Scientific). HEK 293T cells were purchased from Takara Bio (catalogue no. 632180) and cultured in DMEM. SKOV3 was purchased from ATCC (catalogue no. HTB-77) and cultured in McCoy’s 5A (Modified) Medium (catalogue no. 16600082, Thermo Fisher Scientific). Raji-GFP-Luc cells were purchased from Biocytogen (catalogue no. B-HCL-010) and cultured in Roswell Park Memorial Institute (RPMI) 1640 (catalogue no. 21875, Thermo Fisher Scientific). Jurkat cells were purchased from ATCC (catalogue no. TIB-152) and cultured in RPMI 1640. RAW 264.7 cells were purchased from ATCC (catalogue no. TIB-71) and cultured in RPMI 1640. HeLa cells were a gift from P. Lehner (University of Cambridge) and were authenticated using short tandem repeat profiling (Eurofins Genomics). HeLa cells were cultured in DMEM. MEFs were isolated from macerated embryonic day (E) 12.5–13.5 embryos. A whole litter of embryos without sex selection were used. Stable transfection with SV40 large T antigen passage 3 was used for immortalization. Cells were subcultured over 17 more passages and maintained in DMEM[63]. All media was supplemented with 10% FCS (catalogue no. 10270106, Gibco), 100 U ml^−1 penicillin and 100 µg ml^−1 streptomycin (catalogue no. P4333, Sigma-Aldrich). […] Cell number and viability was determined using the ADAM-MC Automated Cell Counter (NanoEntek), CellDrop Automated Cell Counter (DeNovix) or TC20 Automated Cell Counter (Bio-Rad Laboratories). […]

[2] = system: H3 lysine methylation in human CD8^+ T cells; test: Histone 3 methylation western blot; format: cell-based; details: 7 days
Procedure: Histones were extracted with the Histone Extraction Kit (catalogue no. ab113476, Abcam). Proteins were separated by SDS–PAGE and transferred to polyvinylidene fluoride (PVDF) membranes. Total protein stain was obtained using non-stain protein labelling reagent (catalogue no. A44448, Thermo Fisher Scientific). Membranes were then blocked in 5% milk prepared in PBS plus 0.05% Tween-20, incubated with primary antibodies overnight at 4 °C and horseradish peroxidase (HRP)-conjugated secondary antibodies (catalogue nos. HAF008 and HAF007, R&D Systems) for 1 h the next day. After enhanced chemiluminescence (ECL) exposure (catalogue no. GERPN2106, Sigma-Aldrich), membranes were imaged using an iBrightCL1000 (Thermo Fisher Scientific). […] 13998); and anti-H3k27ac (catalogue no.

SMILES	concentration from which cell growth is decreased [1]	H3K9me2 levels on addition of αKG to DEG ([2]; 500 µM αKG with 500 µM DEG)	DEG-induced increase in H3K9 and H3K27 trimethylation on addition of αKG ([2]; equimolar αKG (500 µM) with 500 µM DEG)
CCCCCCCCOC(=O)[C@@H](O)CCC(=O)[O-].[Na+] [octyl ester S-2HG, (2S)-2-hydroxyglutaric acid octyl ester sodium salt, reference compound]	≥ 400 µM	–	–
O=C(O)CCC(=O)C(=O)O [αKG, α-ketoglutarate, reference compound]	–	not reduced	abrogated
